According to the supplement of paper PMC10307832:

What was measured:
XMD8-85 + AZD7762 = compound: CN1CCN(CC1)C2=CC(=C(C=C2)NC3=NC=C4C(=N3)N(C5=CC=CC=C5C(=O)N4C)C)OC [XMD8-85] + NC(=O)Nc1cc(-c2cccc(F)c2)sc1C(=O)N[C@H]1CCCNC1 [AZD7762] (partner 0.2 µM); assay: relative viability (nuclei count vs DMSO), 5 days (fraction); higher = more cells survive
How it was run: (§1)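 Relative viability equals treated-well nuclei counts divided by vehicle-well nuclei counts. Counts came from 4× images of lung cancer cell lines grown in 1536-well plates for 5 days after pin-tool dosing on the day after seeding. Dosing used one drug alone or a fixed anchor-drug dose plus five library-drug doses (not always all listed) in √10 steps, and values are medians of duplicate plates.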

XMD8-85 + Trametinib = compound: CN1CCN(CC1)C2=CC(=C(C=C2)NC3=NC=C4C(=N3)N(C5=CC=CC=C5C(=O)N4C)C)OC [XMD8-85] + CC(=O)Nc1cccc(-n2c(=O)n(C3CC3)c(=O)c3c(Nc4ccc(I)cc4F)n(C)c(=O)c(C)c32)c1 [Trametinib] (partner 0.02 µM); assay: as above
How it was run: as §1

Cell Line | relative viability (XMD8-85 + AZD7762; first compound 0.08 µM) | relative viability (XMD8-85 + AZD7762; first compound 0.253 µM) | relative viability (XMD8-85 + AZD7762; first compound 0.8 µM) | relative viability (XMD8-85 + AZD7762; first compound 2.53 µM) | relative viability (XMD8-85 + AZD7762; first compound 8 µM) | relative viability (XMD8-85 + Trametinib; first compound 0.08 µM) | relative viability (XMD8-85 + Trametinib; first compound 0.253 µM) | relative viability (XMD8-85 + Trametinib; first compound 0.8 µM) | relative viability (XMD8-85 + Trametinib; first compound 2.53 µM) | relative viability (XMD8-85 + Trametinib; first compound 8 µM)
EPLC-272H | 0.209 | 0.16 | 0.362 | 0.229 | 0.273 | 0.276 | 0.271 | 0.272 | 0.313 | 0.251
NCI-H2087 | 1.42 | 1.25 | 1.39 | 1.23 | 0.96 | 0.17 | 0.203 | 0.19 | 0.19 | 0.172
HARA | 0.314 | 0.269 | 0.303 | 0.283 | 0.273 | 0.9 | 0.78 | 0.578 | 0.21 | 0.33
UMC-11 | – | – | – | – | – | 0.723 | 0.738 | 0.696 | 0.683 | 0.403
NCI-H2170 | 0.784 | 0.937 | 0.92 | 0.918 | 0.759 | 0.848 | 0.845 | 1.03 | 1 | 0.702
BEN | 0.831 | 0.661 | 0.691 | 0.653 | 0.463 | 0.866 | 1 | 0.983 | 0.829 | 0.681
EKVX | 0.685 | 0.742 | 0.67 | 0.729 | 0.646 | 0.56 | 0.327 | 0.437 | 0.47 | 0.374
NCI-H1755 | 0.542 | 0.663 | 0.382 | 0.519 | 0.512 | 0.801 | 0.857 | 0.745 | 0.876 | 0.758
NCI-H2126 | 1.06 | 1.12 | 0.962 | 1.05 | 1.06 | 0.584 | 0.6 | 0.615 | 0.538 | 0.398
NCI-H1651 | 0.46 | 0.431 | 0.47 | – | 0.433 | 0.842 | 0.886 | 0.739 | 0.76 | 0.716
NCI-H2228 | – | – | – | – | – | 0.354 | 0.57 | 0.379 | 0.387 | 0.181
NCI-H460 | 0.624 | 0.643 | 0.69 | 0.659 | 0.432 | 0.176 | 0.122 | 0.2 | 0.133 | 0.055
NCI-H2347 | 0.686 | – | 0.732 | – | 0.704 | 0.275 | 0.312 | 0.283 | 0.298 | 0.286
EMC-BAC-2 | 1.16 | 1.03 | 1.04 | 1.1 | 0.789 | 0.901 | 0.879 | 0.895 | 0.828 | 0.67
NCI-H1437 | 1.11 | 1.13 | 1.15 | 1.09 | 0.886 | 0.547 | 0.487 | 0.491 | 0.594 | 0.308
NCI-H650 | 0.92 | 0.991 | 1 | 0.829 | 0.781 | 0.904 | 1 | 0.977 | 0.94 | 0.601
NCI-H2009 | – | – | – | – | – | 0.26 | 0.237 | 0.261 | 0.253 | 0.18
NCI-H1944 | 0.585 | 0.585 | 0.475 | 0.543 | 0.462 | 0.388 | 0.453 | 0.462 | 0.462 | 0.369
NCI-H1734 | 0.562 | 0.534 | 0.529 | 0.626 | – | 0.654 | 0.712 | 0.704 | 0.604 | 0.519

Cell Line | relative viability (XMD8-85 + AZD7762; first compound 0.08 µM) | relative viability (XMD8-85 + AZD7762; first compound 0.253 µM) | relative viability (XMD8-85 + AZD7762; first compound 0.8 µM) | relative viability (XMD8-85 + AZD7762; first compound 2.53 µM) | relative viability (XMD8-85 + AZD7762; first compound 8 µM) | relative viability (XMD8-85 + Trametinib; first compound 0.08 µM) | relative viability (XMD8-85 + Trametinib; first compound 0.253 µM) | relative viability (XMD8-85 + Trametinib; first compound 0.8 µM) | relative viability (XMD8-85 + Trametinib; first compound 2.53 µM) | relative viability (XMD8-85 + Trametinib; first compound 8 µM)
SK-LU-1 | – | – | – | – | – | 0.425 | 0.469 | 0.53 | 0.508 | 0.367
NCI-H1915 | 0.735 | 0.71 | 0.683 | – | 0.725 | 0.328 | 0.309 | 0.251 | 0.478 | 0.282
SW 1573 | – | – | – | – | – | 0.542 | 0.522 | 0.594 | 0.427 | 0.262
NCI-H661 | – | – | – | – | – | 0.548 | 0.536 | 0.583 | 0.653 | 0.43
CAL-12T | 0.545 | 0.642 | 0.604 | – | 0.466 | 0.32 | 0.404 | – | 0.302 | 0.379
A-427 | – | 0.81 | 0.675 | 0.63 | 0.478 | 0.755 | 0.731 | 0.697 | 0.714 | 0.631
LCLC-97TM1 | 0.207 | 0.171 | 0.304 | 0.286 | 0.293 | 0.178 | 0.174 | 0.218 | 0.153 | 0.116
LK-2 | 0.288 | 0.334 | 0.322 | 0.254 | 0.284 | 0.858 | 0.611 | 0.538 | 0.448 | 0.312
SK-MES-1 | – | – | – | – | – | 0.57 | 0.616 | 0.49 | 0.428 | 0.304
LU99A | 0.328 | 0.504 | 0.407 | 0.378 | 0.341 | 0.51 | 0.538 | 0.55 | 0.53 | 0.433
NCI-H1993 | 0.772 | 0.716 | 0.959 | 0.844 | 0.818 | 0.484 | 0.436 | 0.537 | 0.494 | 0.381
NCI-H441 | 1.21 | 1.01 | 1.12 | 1.11 | 0.562 | 0.4 | 0.427 | 0.463 | 0.494 | 0.234
NCI-H1666 | 0.836 | 0.87 | – | 1.01 | 0.694 | 0.918 | 0.868 | 0.852 | 0.947 | 0.794
NCI-H2023 | – | – | – | – | – | 0.515 | 0.535 | 0.685 | 0.557 | 0.284
NCI-H322M | 0.566 | 0.606 | 0.568 | 0.451 | 0.38 | 0.534 | 0.5 | 0.44 | 0.418 | 0.455
NCI-H838 | 0.972 | 0.987 | 0.915 | 0.856 | 0.868 | 0.529 | 0.48 | 0.516 | 0.617 | 0.334
NCI-H522 | 0.697 | 0.851 | 0.798 | 0.859 | 0.69 | 0.821 | 0.653 | 0.739 | 0.698 | 0.537
ChaGo-K-1 | 0.825 | 0.883 | 0.855 | 0.903 | 0.91 | 0.926 | 0.908 | 0.944 | 0.962 | 0.668
